One experiment concerns A. solani. Nature of the experiment: Field test against early blight in potato. Conditions: sprayed at a usual concentration; for Morbidity (%) Avg.: average of 3 repeats. It counts as in vivo, Alternaria solani. The procedure: (§1) Greenhouse and field tests of the fungicidal activity of the antagonistic microbe against various pathogenic fungi are conduced. For this, tomatoes are cultivated both in a greenhouse and a field. The tomatoes cultivated in a greenhouse and a field are treated with the spore suspension of the novel antagonistic microbe of the present invention and then exposed to pathogenic fungi, B. cinerea causing gray mold rot, C. fulvum causing leaf mold, and A. solani causing early blight, separately. The experiment is performed according to a randomized block design with three repeat measures. For comparison, procymidone for use in the control of gray mold rot, propineb for use in the control of leaf mold, and azoxystrobin for use in the control of early blight are employed. Morbidity is determined by examining the infection of all tomatoes one by one or by a sampling method. A significance test is carried out according to Duncan's multiple range test (DMRT).
To determine the fungicidal activity of the antagonistic microbe of the present invention against A. solani causing early blight, tomato was cultivated in a field. The cultivation was performed in the following schedule;
June 10 1st Treatment with the antagonistic microbe (spray amount 300 L/10 a)
July 5 2nd Treatment with the antagonistic microbe (spray amount 300 L/10 a)
July 13 Measuring mobidity
The experiment was performed in a randomized block design with three repeat measures. For comparison, azoxystrobin was sprayed as a control at a usual concentration. Morbidity was determined by examining the infection of 20 stocks of potatoes per repeat measure and attack frequency was calculated as in Experimental Example 4-2.

In a further experiment the test system is B. cinerea. The experiment is described as follows: Greenhouse test against tomato gray mold rot. It counts as in vivo, Botrytis cinerea. Conditions: sprayed at a usual concentration. On the procedure: as §1
To determine the fungicidal activity of the antagonistic microbe of the present invention against B. cinerea causing gray mold rot, tomato plants were cultivated in a greenhouse with a dimension of 23.7 m in length, 7.0 m in width and 2.3 m in height. The cultivation was performed according to the following schedule;
February 11 1st Treatment with the antagonistic microbe (spray amount 300 L/10 a)
February 20 2nd Treatment with the antagonistic microbe (spray amount 300 L/10 a)
March 2 3rd Treatment with the antagonistic microbe (spray amount 330 L/10 a)
March 22 Measuring mobidity
The tomato plants treated with the antagonistic microbe occupied an area of 5.4 m2 and the experiment was performed in triplicate in a randomized block design. For comparison, Procymidone was sprayed as a control at a usual concentration. The spore suspension of the antagonistic microbe prepared in Example 2 was added directly to water to bring about 500- and 1,000-fold dilutions of the population. Morbidity was determined by examining the infection of all tomato plants one by one. A significance test was performed according to Duncan's multiple range test (DMRT).

The test system of the next experiment is C. fulvum. The experiment is described as follows: Greenhouse test against leaf mold in tomato. It counts as in vivo, Cladosporium fulvum. Conditions: sprayed at a usual concentration; for Morbidity (%) Avg.: average of 3 repeats. The procedure: as §1
To determine the fungicidal activity of the antagonistic microbe of the present invention against C. fulvum causing leaf mold, tomato plants were cultivated in the same manner as in Experimental Example 4-1 in a greenhouse with a dimension of 23.7 m in length, 7.0 m in width and 2.3 m in height. The experiment was performed in triplicate in a randomized block design. For comparison, propineb was sprayed as a control at a usual concentration. Morbidity was determined by examining the infection of 20 stalks of tomatoes per repeat measure and attack frequency was calculated according to the following equation: [formula]
wherein the factor is set to be: 0 when no leaves are infected; 1 when one forth of the total leaves are infected; 2 when half of the total leaves are infected and some of them are withered; 3 when three fourths of the total leaves are infected and half of them are withered; and 4 when two thirds are withered to death.

The values that follow come from patent publication US20040151698A1, “Microbial pesticide active against plant fungal pathogens and process for preparation thereof” (priority 2000, published 2004).

Several values for one entry are separate records, joined by “and”; a condition that tells them apart may be missing. Equal values may be shown once.

`CO/C=C(/C(=O)OC)c1ccccc1Oc1cc(Oc2ccccc2C#N)ncn1` [Azoxytrobin, azoxystrobin]: in the experiment with A. solani, the “Control value(%)” value is 57.6% and the “Morbidity (%) Avg.” value was determined as 9.2 A %. For the same compound, the “Morbidity (%) Avg.” value in the experiment with A. solani (listed as azoxystrobin) was 9.2%. Moreover, in the experiment with A. solani (repeat 1), the “Morbidity (%) 1” value is recorded as 9.3%. The “Morbidity (%) 2” value with A. solani (repeat 2) is listed as 10.2%. Also, the “Morbidity (%) 3” value in the experiment on A. solani (repeat 3) is on record as 8.2%.

With `CC12CC1(C)C(=O)N(c1cc(Cl)cc(Cl)c1)C2=O` (centres unmarked) [Procymidone], in the experiment with B. cinerea, the “Control value(%)” value stood at 40.2%. For the same compound, the “Morbidity (%) Avg.” value in the experiment with B. cinerea (average of 3 repeats) is 10.4% and 10.4 B %. Also, the “Morbidity (%) 1” value with B. cinerea (repeat 1) was found to be 12.3%. The “Morbidity (%) 2” value with B. cinerea (repeat 2) was 10.6%. Besides, the “Morbidity (%) 3” value in the experiment with B. cinerea (repeat 3) is 8.2%.

For the compound propineb, in the experiment with C. fulvum, the “Control value(%)” value was 42.9% and the “Morbidity (%) Avg.” value is 12.0 B %. Moreover, the “Morbidity (%) Avg.” value in the experiment with C. fulvum (listed as propineb) is 21.9%. Also, in the experiment on C. fulvum (repeat 1), the “Morbidity (%) 1” value was found to be 10.3%. The “Morbidity (%) 2” value in the experiment on C. fulvum (repeat 2) was found to be 11.2%. In addition, the “Morbidity (%) 3” value with C. fulvum (repeat 3) stood at 14.5%.
